This note sets out measurements from patent US12122761B2, “2-azaspiro[3.4]octane derivatives as M4 agonists” (NOVARTIS AG, priority 2019, dated 2024).

Experiment [1] addresses T1, Cloned human M1 receptor (CHRM1) stably expressed in HEK293 cells (Homo sapiens, UniProt P11229).
T1 construct: expressed in transfected cells; host or cells: HEK293
T1 sequence (P11229 1-460): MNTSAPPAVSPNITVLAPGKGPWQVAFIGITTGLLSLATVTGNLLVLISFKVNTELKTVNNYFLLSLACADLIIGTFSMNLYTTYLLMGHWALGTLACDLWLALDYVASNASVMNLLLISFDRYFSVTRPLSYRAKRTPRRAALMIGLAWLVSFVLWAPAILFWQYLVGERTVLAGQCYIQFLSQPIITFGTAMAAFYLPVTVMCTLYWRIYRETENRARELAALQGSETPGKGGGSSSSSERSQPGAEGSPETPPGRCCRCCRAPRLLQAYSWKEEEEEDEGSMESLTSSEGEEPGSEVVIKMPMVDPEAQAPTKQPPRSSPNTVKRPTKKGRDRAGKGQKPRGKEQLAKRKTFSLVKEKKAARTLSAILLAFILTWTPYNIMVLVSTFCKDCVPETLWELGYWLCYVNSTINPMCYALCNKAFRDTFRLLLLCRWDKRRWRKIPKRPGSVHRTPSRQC
Kind of experiment: CHRM1 Ca++ Flux Assay (agonist mode, FDSS 7000EX). In kind it is cell-based. The conditions noted are these: for M1 FDSS PA: Percent Activity; for EC50: geometric mean if tested more than once; for Emax: HEK293, Percent Activity, read-out: M1 FDSS PA. The method in brief:
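Compounds tested as agonists at 11 concentrations in triplicate, with calcium traces captured over 3 minutes. Cells were HEK293 with stable human CHRM1 expression, plated overnight at 25K/well and loaded with calcium dye. Responses normalized to carbachol EC100 and fitted by four-parameter nonlinear regression.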

The target in experiment [2] is T2, human cloned CHRM5 receptor (M5_CHO) (Homo sapiens, UniProt P08912).
T2 construct: expressed in transfected cells; host or cells: CHO (M5_CHO)
T2 sequence (P08912 1-532): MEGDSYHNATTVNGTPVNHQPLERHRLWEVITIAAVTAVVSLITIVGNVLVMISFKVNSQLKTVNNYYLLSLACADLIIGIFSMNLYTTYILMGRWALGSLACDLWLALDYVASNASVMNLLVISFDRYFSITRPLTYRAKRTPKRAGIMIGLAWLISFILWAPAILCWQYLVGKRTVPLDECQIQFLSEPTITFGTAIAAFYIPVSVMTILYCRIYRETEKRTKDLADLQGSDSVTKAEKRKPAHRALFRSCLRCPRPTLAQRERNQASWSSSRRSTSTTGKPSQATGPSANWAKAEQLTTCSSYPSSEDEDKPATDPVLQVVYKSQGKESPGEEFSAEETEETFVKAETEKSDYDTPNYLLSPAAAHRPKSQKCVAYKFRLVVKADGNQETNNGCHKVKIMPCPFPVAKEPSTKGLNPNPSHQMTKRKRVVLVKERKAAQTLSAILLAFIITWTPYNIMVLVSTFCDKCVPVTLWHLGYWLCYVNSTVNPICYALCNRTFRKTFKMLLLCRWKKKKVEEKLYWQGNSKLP
Kind of experiment: CHRM5 Ca++ Flux Assay (agonist mode, FDSS 7000EX). In kind it is cell-based. The conditions noted are these: for M5 FDSS PA / Emax: Percent Activity measured to EC100 of Carbachol; for EC50: agonist mode, geometric mean if tested more than once, read-out: M5 FDSS EC50; for Emax: read-out: M5 FDSS PA. The essentials: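 Stable CHO-K1 lines (human M3 or M5), calcium-dye loaded ≥1 h, assayed in Ca/Mg-free HBSS + 20 mM HEPES + 2.5 mM probenecid. 11-pt dose response, triplicate, 3 min fluorescence read. 4-parameter regression; % activity vs carbachol EC100.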

For the compound `Cc1nc(COc2ccccc2C2CCN([C@@H]3CCC4(C3)CN(C(=O)C3(F)CC3)C4)CC2)no1` (single isomer, unassigned) [Example 7X, (R)-(1-fluorocyclopropyl)(6-(4-(2-((5-methyl-1,2,4-oxadiazol-3-yl)methoxy)phenyl)piperidin-1-yl)-2-azaspiro[3.4]octan-2-yl)methanone or (S)-(1-fluorocyclopropyl)(6-(4-(2-((5-methyl-1,2,4-oxadiazol-3-yl)methoxy)phenyl)piperidin-1-yl)-2-azaspiro[3.4]octan-2-yl)methanone], in experiment [1], the “M1 FDSS PA” value worked out at 86% and the EC50 turned out to be 3 nM. In experiment [2], the “M5 FDSS PA” value was found to be 9% and the EC50 turned out to be 71 nM.
For `O=C1CCCN1CCOc1ccccc1C1CCN([C@@H]2CCC3(C2)CN(C(=O)C2(F)CC2)C3)CC1.O=CO` (single isomer, unassigned) [Example 7P, (R)-1-(2-(2-(1-(2-(1-fluorocyclopropane-1-carbonyl)-2-azaspiro[3.4]octan-6-yl)piperidin-4-yl)phenoxy)ethyl)pyrrolidin-2-one formate salt or (S)-1-(2-(2-(1-(2-(1-fluorocyclopropane-1-carbonyl)-2-azaspiro[3.4]octan-6-yl)piperidin-4-yl)phenoxy)ethyl)pyrrolidin-2-one formate salt] the same measures were 46%, 29 nM, 0% and above 25000 nM.
Take `Fc1ccc(OC2CC3(COC3)C2)c(C2CCN([C@@H]3CCC4(C3)CN(c3nnco3)C4)CC2)c1` [Example 1B, (R)-2-(6-(4-(2-((2-oxaspiro[3.3]heptan-6-yl)oxy)-5-fluorophenyl)piperidin-1-yl)-2-azaspiro[3.4]octan-2-yl)-1,3,4-oxadiazole]: the figures for the Emax in experiment [1] and in experiment [2] were 48% and 0%, respectively. Besides, the EC50 in experiment [1] is 322 nM; in experiment [2] it was above 25000 nM.
For the compound `COc1ccccc1C1CCN([C@@H]2CCC3(C2)CN(c2nccnc2C(F)(F)F)C3)CC1` [Example 5I, (R)-6-(4-(2-methoxyphenyl)piperidin-1-yl)-2-(3-(trifluoromethyl)pyrazin-2-yl)-2-azaspiro[3.4]octane], in experiment [1], the Emax amounted to 55% and the midpoint of the response, the EC50, lay at 272 nM. Further, in experiment [2], the Emax is 0% and the EC50 is above 25000 nM.
As for `O=C(N1CC2(CC[C@@H](N3CCC(c4ccccc4OC(F)(F)F)CC3)C2)C1)C1(F)CC1` (single isomer, unassigned) [Example 9B, (R)-(1-fluorocyclopropyl)(6-(4-(2-(trifluoromethoxy)phenyl)piperidin-1-yl)-2-azaspiro[3.4]octan-2-yl)methanone or (S)-(1-fluorocyclopropyl)(6-(4-(2-(trifluoromethoxy)phenyl)piperidin-1-yl)-2-azaspiro[3.4]octan-2-yl)methanone], in experiment [1], the “M1 FDSS PA” value came to 55% and the midpoint of the response, the EC50, lay at 47 nM. In experiment [2], the “M5 FDSS PA” value came to 0% and the EC50 was above 25000 nM.
Turning to `Cc1coc(N2CC3(CC[C@@H](N4CCC(c5ccccc5OCC(C)(C)O)CC4)C3)C2)n1` [Example 3O, (R)-2-methyl-1-(2-(1-(2-(4-methyloxazol-2-yl)-2-azaspiro[3.4]octan-6-yl)piperidin-4-yl)phenoxy)propan-2-ol], in experiment [1], the Emax is 0% and the EC50 is above 25000 nM. In experiment [2], the Emax was 0% and the EC50 is above 25000 nM.
As to `COc1ccccc1C1CCN([C@@H]2CCC3(C2)CN(c2ncns2)C3)CC1` (single isomer, unassigned) [Example 10Q, (R)-5-(6-(4-(2-methoxyphenyl)piperidin-1-yl)-2-azaspiro[3.4]octan-2-yl)-1,2,4-thiadiazole or (S)-5-(6-(4-(2-methoxyphenyl)piperidin-1-yl)-2-azaspiro[3.4]octan-2-yl)-1,2,4-thiadiazole], in experiment [1], the “M1 FDSS PA” value is given as 66% and a half-maximal response (EC50) required 170 nM. In addition, in experiment [2], the “M5 FDSS PA” value is given as 0% and the EC50 is above 25000 nM.
For `Fc1ccc(OC2CC3(COC3)C2)c(C2CCN([C@@H]3CCC4(C3)CN(c3cncnc3)C4)CC2)c1` (single isomer, unassigned) [Example 10F, (R)-6-(4-(2-((2-oxaspiro[3.3]heptan-6-yl)oxy)-5-fluorophenyl)piperidin-1-yl)-2-(pyrimidin-5-yl)-2-azaspiro[3.4]octane or (S)-6-(4-(2-((2-oxaspiro[3.3]heptan-6-yl)oxy)-5-fluorophenyl)piperidin-1-yl)-2-(pyrimidin-5-yl)-2-azaspiro[3.4]octane] the same measures were 0%, above 25000 nM, 0% and above 25000 nM.
The corresponding values for `O=C(N1CC2(CC[C@@H](N3CCC(c4cc(F)ccc4C4CCOCC4)CC3)C2)C1)C1(F)CC1` (single isomer, unassigned) [Example 9K, (R)-(6-(4-(5-fluoro-2-(tetrahydro-2H-pyran-4-yl)phenyl)piperidin-1-yl)-2-azaspiro[3.4]octan-2-yl)(1-fluorocyclopropyl)methanone or (S)-(6-(4-(5-fluoro-2-(tetrahydro-2H-pyran-4-yl)phenyl)piperidin-1-yl)-2-azaspiro[3.4]octan-2-yl)(1-fluorocyclopropyl)methanone] are 58%, 36 nM, 0% and above 25000 nM.
As to `O[C@H]1CC[C@@H](c2ccccc2C2CCN([C@@H]3CCC4(C3)CN(c3nnco3)C4)CC2)CC1` (single isomer, unassigned) [Example 2N, (1S,4s)-4-(2-(1-((R)-2-(1,3,4-oxadiazol-2-yl)-2-azaspiro[3.4]octan-6-yl)piperidin-4-yl)phenyl)cyclohexan-1-ol or (1R,4r)-4-(2-(1-((R)-2-(1,3,4-oxadiazol-2-yl)-2-azaspiro[3.4]octan-6-yl)piperidin-4-yl)phenyl)cyclohexan-1-ol], in experiment [1], the “M1 FDSS PA” value is given as 69% and the EC50 came out at 302 nM. Further, in experiment [2], the “M5 FDSS PA” value amounted to 0% and the EC50 is above 25000 nM.
For `Fc1ccc(OC2CCOCC2)c(C2CCN([C@@H]3CCC4(C3)CN(c3cncnc3)C4)CC2)c1` (single isomer, unassigned) [Example 10G, (R)-6-(4-(5-fluoro-2-((tetrahydro-2H-pyran-4-yl)oxy)phenyl)piperidin-1-yl)-2-(pyrimidin-5-yl)-2-azaspiro[3.4]octane or (S)-6-(4-(5-fluoro-2-((tetrahydro-2H-pyran-4-yl)oxy)phenyl)piperidin-1-yl)-2-(pyrimidin-5-yl)-2-azaspiro[3.4]octane] the same measures were 64%, 63 nM, 0% and above 25000 nM.
As to `COc1ccccc1C1CCN([C@@H]2CCC3(C2)CN(c2ccc(Cl)nn2)C3)CC1` [Example 5N, (R)-2-(6-chloropyridazin-3-yl)-6-(4-(2-methoxyphenyl)piperidin-1-yl)-2-azaspiro[3.4]octane], in experiment [1], the Emax was 0% and the EC50 was above 25000 nM. For the same compound, in experiment [2], the Emax was determined as 8% and the EC50 amounted to 22900 nM.
Regarding `O=C(N1CC2(CC[C@@H](N3CCC(c4ccccc4OC4CCOCC4)CC3)C2)C1)C1(F)CC1` (single isomer, unassigned) [Example 9E, (R)-(1-fluorocyclopropyl)(6-(4-(2-((tetrahydro-2H-pyran-4-yl)oxy)phenyl)piperidin-1-yl)-2-azaspiro[3.4]octan-2-yl)methanone or (S)-(1-fluorocyclopropyl)(6-(4-(2-((tetrahydro-2H-pyran-4-yl)oxy)phenyl)piperidin-1-yl)-2-azaspiro[3.4]octan-2-yl)methanone], in experiment [1], the “M1 FDSS PA” value came out at 34% and the EC50 was 120 nM. Moreover, in experiment [2], the “M5 FDSS PA” value is recorded as 0% and the EC50 is above 25000 nM.
